Source: patent US8192962B2, “Processes for detecting toxic substances” (Daikin Industries, Ltd., priority 2001, dated 2012)

Test system: Genes belonging to other category
Assay: DNA chip mRNA expression in yeast, genes belonging to other category (Table 9)
Assay type: cell-based, Saccharomyces cerevisiae S288C
Protocol: Yeast (Saccharomyces cerevisiae S288C (α SUC2mal mel gap2 CUP1)) were incubated at 25° C. on YPD medium (yeast extract 1%, polypepton 2%, glucose 2%). One of toxic chemical substances was added to the cells at logarithmic growth phase, and the cells were further incubated for two hours. Cells were cultured without any chemical substance in the same condition, and were used as control. Concentrations of the chemical substances were defined to inhibit the growth of the yeast but not lead to death.
After completion of the incubation, the culture was centrifuged to collect the cells. To the cells, sodium acetate buffer (50 mM sodium acetate, 10 mM EDTA, 1% SDS) was added, and the mixture was shaken at 65° C. for five minutes, followed by returning to room temperature, and obtaining the supernatant, of which the procedures were repeated two times. To the supernatant, ½ amount of a solution of phenol/chloroform was added, and the mixture was centrifuged to give a supernatant, which was added with an equal amount of chloroform, and the mixture was centrifuged to give a supernatant. To the supernatant, an equal amount of isopropanol containing 0.3 M sodium acetate was added, and the mixture was allowed to stand at room temperature for 30 minutes, after which the mixture was centrifuged to give a sediment of the whole RNAs. Seventy % ethanol was added to the sediment, and the mixture was again centrifuged to give a sediment, which was then dried and dissolved in water. mRNA was isolated from the whole RNAs as followings. In view of the fact that a poly A chain is attached to the 3′ terminus of mRNA, a polynucleotide having a poly T structure which was immobilized on the surface of latex beads was used to trap the mRNA, and then the mRNA was washed and eluted with spine column (Oligotex-dT30<Super>mRNA Purification Kit, Takara). Reverse transcription of the mRNA was conducted with a reverse transcriptase (Super Script II Reverse Transcriptase; catalogue No. 18064-014, GibcoBRL) using fluorescence-labeled nucleotides to give cDNAs that were introduced with Cy3-dUTP or Cy5-dUTP during the reverse transcription.
The labeled cDNAs were dissolved in TE buffer (10mM Tris-HCl/1 mM EDTA, pH8.0), and the solution was dropped on the DNA chip containing the whole genes of yeast (DNA Chip Research Inc. Japan) so that the cDNAs were hybridized on the DNA chip at 65° C. for over 12 hours. The fluoresces intensity of the DNA chip was read with a scanner, and the ratio relative to the fluorescence intensity resulting from the absence of chemical substance was estimated as the following, which is shown in Tables 1 to 9: […]

Oc1cc(Cl)c(Cl)cc1Cl [(6), 2,4,5-trichlorophenol]
The level of expressed mRNA in the presence of chemical substance/The level of expressed mRNA in the absence of chemical substance (yeast gene YMR275C): 1.4
The level of expressed mRNA in the presence of chemical substance/The level of expressed mRNA in the absence of chemical substance (yeast gene YMR276W): 0.8
The level of expressed mRNA in the presence of chemical substance/The level of expressed mRNA in the absence of chemical substance (yeast gene YMR297W): 1.8
The level of expressed mRNA in the presence of chemical substance/The level of expressed mRNA in the absence of chemical substance (yeast gene YMR314W): 1.3
The level of expressed mRNA in the presence of chemical substance/The level of expressed mRNA in the absence of chemical substance (yeast gene YNL006W): 1.0
The level of expressed mRNA in the presence of chemical substance/The level of expressed mRNA in the absence of chemical substance (yeast gene YNL007C): 0.6
The level of expressed mRNA in the presence of chemical substance/The level of expressed mRNA in the absence of chemical substance (yeast gene YNL069C): 0.4
The level of expressed mRNA in the presence of chemical substance/The level of expressed mRNA in the absence of chemical substance (yeast gene YNL093W): 1.6
The level of expressed mRNA in the presence of chemical substance/The level of expressed mRNA in the absence of chemical substance (yeast gene YNL333W): 1.5
The level of expressed mRNA in the presence of chemical substance/The level of expressed mRNA in the absence of chemical substance (yeast gene YNR010W): 1.3
The level of expressed mRNA in the presence of chemical substance/The level of expressed mRNA in the absence of chemical substance (yeast gene YNR069C): 1.7
The level of expressed mRNA in the presence of chemical substance/The level of expressed mRNA in the absence of chemical substance (yeast gene YOL013C): 1.1
The level of expressed mRNA in the presence of chemical substance/The level of expressed mRNA in the absence of chemical substance (yeast gene YOL039W): 0.4
The level of expressed mRNA in the presence of chemical substance/The level of expressed mRNA in the absence of chemical substance (yeast gene YOL120C): 0.3
The level of expressed mRNA in the presence of chemical substance/The level of expressed mRNA in the absence of chemical substance (yeast gene YOL164W): 1.2
The level of expressed mRNA in the presence of chemical substance/The level of expressed mRNA in the absence of chemical substance (yeast gene YOR023C): 1.8
The level of expressed mRNA in the presence of chemical substance/The level of expressed mRNA in the absence of chemical substance (yeast gene YOR036W): 1.7
The level of expressed mRNA in the presence of chemical substance/The level of expressed mRNA in the absence of chemical substance (yeast gene YOR117W): 1.1
The level of expressed mRNA in the presence of chemical substance/The level of expressed mRNA in the absence of chemical substance (yeast gene YOR124C): 0.9
The level of expressed mRNA in the presence of chemical substance/The level of expressed mRNA in the absence of chemical substance (yeast gene YOR132W): 1.6
The level of expressed mRNA in the presence of chemical substance/The level of expressed mRNA in the absence of chemical substance (yeast gene YOR133W): 0.9
The level of expressed mRNA in the presence of chemical substance/The level of expressed mRNA in the absence of chemical substance (yeast gene YOR134W): 1.4
The level of expressed mRNA in the presence of chemical substance/The level of expressed mRNA in the absence of chemical substance (yeast gene YOR157C): 1.2
The level of expressed mRNA in the presence of chemical substance/The level of expressed mRNA in the absence of chemical substance (yeast gene YOR181W): 0.9
The level of expressed mRNA in the presence of chemical substance/The level of expressed mRNA in the absence of chemical substance (yeast gene YOR185C): 3.0
The level of expressed mRNA in the presence of chemical substance/The level of expressed mRNA in the absence of chemical substance (yeast gene YOR198C): 0.9
The level of expressed mRNA in the presence of chemical substance/The level of expressed mRNA in the absence of chemical substance (yeast gene YOR259C): 0.8
The level of expressed mRNA in the presence of chemical substance/The level of expressed mRNA in the absence of chemical substance (yeast gene YOR261C): 1.4
The level of expressed mRNA in the presence of chemical substance/The level of expressed mRNA in the absence of chemical substance (yeast gene YOR288C): 1.0
The level of expressed mRNA in the presence of chemical substance/The level of expressed mRNA in the absence of chemical substance (yeast gene YOR327C): 1.4
The level of expressed mRNA in the presence of chemical substance/The level of expressed mRNA in the absence of chemical substance (yeast gene YOR355W): 1.6
The level of expressed mRNA in the presence of chemical substance/The level of expressed mRNA in the absence of chemical substance (yeast gene YOR362C): 1.4
The level of expressed mRNA in the presence of chemical substance/The level of expressed mRNA in the absence of chemical substance (yeast gene YOR383C): 6.8
The level of expressed mRNA in the presence of chemical substance/The level of expressed mRNA in the absence of chemical substance (yeast gene YPL089C): 0.8
The level of expressed mRNA in the presence of chemical substance/The level of expressed mRNA in the absence of chemical substance (yeast gene YPL109C): 1.2
The level of expressed mRNA in the presence of chemical substance/The level of expressed mRNA in the absence of chemical substance (yeast gene YPL149W): 0.9
The level of expressed mRNA in the presence of chemical substance/The level of expressed mRNA in the absence of chemical substance (yeast gene YPL154C): 3.5
The level of expressed mRNA in the presence of chemical substance/The level of expressed mRNA in the absence of chemical substance (yeast gene YPR028W): 1.4
The level of expressed mRNA in the presence of chemical substance/The level of expressed mRNA in the absence of chemical substance (yeast gene YPR080W): 1.4
The level of expressed mRNA in the presence of chemical substance/The level of expressed mRNA in the absence of chemical substance (yeast gene YPR103W): 1.2
The level of expressed mRNA in the presence of chemical substance/The level of expressed mRNA in the absence of chemical substance (yeast gene YPR108W): 1.5
The level of expressed mRNA in the presence of chemical substance/The level of expressed mRNA in the absence of chemical substance (yeast gene YPR168W): 0.4
